Residue numbers refer to the chain shown, from its start. Like-named read-outs stand apart in the source and are kept apart here.
What was measured:
[1] = target: RatGluA2 AMPA receptors (Rattus norvegicus, UniProt P19491); experiment: Two-electrode voltage clamp, glutamate-gated current in oocytes expressing RatGluA2 and human TARPγ2; assay type: cell-based; details: n = 5
Text: (dots) and resulting means (columns).

[2] = target: T1, AcaGluD (Acanthaster planci, UniProt A0A8B7XXR5); experiment: Two-electrode voltage clamp, ligand-gated currents in oocytes; assay type: cell-based
T1 sequence (A0A8B7XXR5 24-958): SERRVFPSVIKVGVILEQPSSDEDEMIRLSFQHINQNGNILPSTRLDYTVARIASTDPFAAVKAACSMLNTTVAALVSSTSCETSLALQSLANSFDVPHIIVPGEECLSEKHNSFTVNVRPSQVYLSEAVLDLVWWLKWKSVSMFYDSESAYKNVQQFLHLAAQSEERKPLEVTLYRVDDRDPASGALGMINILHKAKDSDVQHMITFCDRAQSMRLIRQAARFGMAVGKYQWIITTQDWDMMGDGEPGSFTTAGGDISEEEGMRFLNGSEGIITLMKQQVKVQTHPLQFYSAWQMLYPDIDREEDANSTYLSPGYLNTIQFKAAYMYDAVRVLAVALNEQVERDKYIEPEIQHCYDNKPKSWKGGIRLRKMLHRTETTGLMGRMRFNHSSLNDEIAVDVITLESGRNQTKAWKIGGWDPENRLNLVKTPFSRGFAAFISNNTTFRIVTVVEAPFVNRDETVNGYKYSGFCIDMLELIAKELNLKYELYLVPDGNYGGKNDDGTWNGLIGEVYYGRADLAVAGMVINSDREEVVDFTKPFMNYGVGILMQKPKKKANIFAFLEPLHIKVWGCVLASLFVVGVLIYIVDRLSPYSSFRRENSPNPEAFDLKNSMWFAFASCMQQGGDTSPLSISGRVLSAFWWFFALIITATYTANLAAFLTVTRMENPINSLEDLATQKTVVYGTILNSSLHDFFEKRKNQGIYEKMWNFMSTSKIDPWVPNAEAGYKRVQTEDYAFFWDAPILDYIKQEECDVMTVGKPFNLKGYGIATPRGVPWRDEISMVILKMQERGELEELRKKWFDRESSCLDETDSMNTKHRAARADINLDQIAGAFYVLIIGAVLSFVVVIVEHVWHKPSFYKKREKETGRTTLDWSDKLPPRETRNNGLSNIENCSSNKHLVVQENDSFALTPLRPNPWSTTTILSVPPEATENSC

[3] = target: T2, RatGluD2^Lc^-9x (Rattus norvegicus, UniProt Q63226, A654T/A686S/D753Q/K694R/N720P/N763K/P806D/Q786M/R787V/Y613F); experiment: Two-electrode voltage clamp, responses to ligands in mutant-expressing oocytes; assay type: cell-based; details: pentamidine 100 μM
T2 construct: expressed in transfected cells; host or cells: Xenopus laevis oocytes injected with mRNA
Text: If the 10 mutations discussed above drove the loss of function in vertebrate delta iGluRs, one might expect that the latter could be “reawakened” via active invertebrate delta iGluR-like mutations here. We therefore engineered mutant RatGluD2 iGluRs to contain at these positions the equivalent residues from starfish delta iGluRs. These mutants were RatGluD2^5x, containing Y613F, A686S, K694R, N720P, and P806D substitutions (pink in Fig. 6A), and RatGluD2^9x, additionally containing N763K, D753Q, Q786M, and R787V (cyan in Fig. 6A).
Fig. 6. AcaGluD-like mutations alter RatGluD2 receptor function. (A) D-serine bound RatGluD2 from X-ray structure PDB:2v3u ([13]). Selected amino acid residues are indicated, colored, shown as sticks, and labeled 5×, 9×, 10×, and/or Lc according to the multiple mutants they were incorporated into. 10× mutant included 10×, 9×, and 5× positions. 9× included 9× and 5×. 5× included only 5×. […] (B–E) Example current responses to different neurotransmitter ligands (30 mM) and to pore blocker pentamidine (Pent, 100 μM) in oocytes expressing indicated RatGluD2 mutants. The dashed line indicates zero current baseline. (F) Individual (dots) and mean (columns) responses to ligands in oocytes expressing indicated RatGluD2 mutants (n = 4 to 5).

[4] = test system: S713A AcaGluD; experiment: Two-electrode voltage clamp, GABA-gated current before/after concanavalin A treatment; assay type: cell-based, Acanthaster planci; details: concanavalin A 10 μM, 30 mM GABA
Text: (§1) Fig. 5. RatGluD2-like substitutions impair the ligand-gated activity of AcaGluD receptors. (A) Ligand-gated currents in oocytes expressing indicated mutant AcaGluD receptors or uninjected oocytes. (B) Maximum current amplitude (“Imax”, Upper) and relative ligand-gated current amplitude (“I/Imax”, Lower) and at wild-type (WT) and mutant AcaGluD receptors (mean ± SEM, n = 3 to 5). (C) Immunolabeling c-Myc tag in AcaGluD C-terminal. Upper, example micropgraphs. Lower, […] fluorescence units (RFU) plotted against relative radial distance, peaking at the oocyte surface. White scale bars, 100 μm. (D) AlphaFold model of two adjacent AcaGluD LBDs (rear LBD faded). Selected amino acid residues colored and shown as sticks. Magenta, drastic loss of function; cyan, moderate loss of function. […] (E) Upper, example, and Lower, summarized current responses to 30 mM GABA (“IGABA”) in WT or mutant AcaGluD-expressing oocytes before or after treatment with concanavalin A (“ConA”, 10 μM).

[5] = test system: F640Y AcaGluD; experiment: as above; assay type: cell-based, Acanthaster planci; details: concanavalin A 10 μM, 30 mM GABA
Text: as §1

[6] = test system: D825P AcaGluD; experiment: as above; assay type: cell-based, Acanthaster planci; details: concanavalin A 10 μM, 30 mM GABA
Text: as §1

[7] = test system: R721K AcaGluD; experiment: as above; assay type: cell-based, Acanthaster planci; details: concanavalin A 10 μM, 30 mM GABA
Text: as §1

[8] = target: T3, RatGluD2^Lc (Rattus norvegicus, UniProt Q63226, A654T); experiment: Two-electrode voltage clamp, inhibition of constitutive current in oocytes; details: each n = 4
T3 sequence (Q63226 24-1007 A654T): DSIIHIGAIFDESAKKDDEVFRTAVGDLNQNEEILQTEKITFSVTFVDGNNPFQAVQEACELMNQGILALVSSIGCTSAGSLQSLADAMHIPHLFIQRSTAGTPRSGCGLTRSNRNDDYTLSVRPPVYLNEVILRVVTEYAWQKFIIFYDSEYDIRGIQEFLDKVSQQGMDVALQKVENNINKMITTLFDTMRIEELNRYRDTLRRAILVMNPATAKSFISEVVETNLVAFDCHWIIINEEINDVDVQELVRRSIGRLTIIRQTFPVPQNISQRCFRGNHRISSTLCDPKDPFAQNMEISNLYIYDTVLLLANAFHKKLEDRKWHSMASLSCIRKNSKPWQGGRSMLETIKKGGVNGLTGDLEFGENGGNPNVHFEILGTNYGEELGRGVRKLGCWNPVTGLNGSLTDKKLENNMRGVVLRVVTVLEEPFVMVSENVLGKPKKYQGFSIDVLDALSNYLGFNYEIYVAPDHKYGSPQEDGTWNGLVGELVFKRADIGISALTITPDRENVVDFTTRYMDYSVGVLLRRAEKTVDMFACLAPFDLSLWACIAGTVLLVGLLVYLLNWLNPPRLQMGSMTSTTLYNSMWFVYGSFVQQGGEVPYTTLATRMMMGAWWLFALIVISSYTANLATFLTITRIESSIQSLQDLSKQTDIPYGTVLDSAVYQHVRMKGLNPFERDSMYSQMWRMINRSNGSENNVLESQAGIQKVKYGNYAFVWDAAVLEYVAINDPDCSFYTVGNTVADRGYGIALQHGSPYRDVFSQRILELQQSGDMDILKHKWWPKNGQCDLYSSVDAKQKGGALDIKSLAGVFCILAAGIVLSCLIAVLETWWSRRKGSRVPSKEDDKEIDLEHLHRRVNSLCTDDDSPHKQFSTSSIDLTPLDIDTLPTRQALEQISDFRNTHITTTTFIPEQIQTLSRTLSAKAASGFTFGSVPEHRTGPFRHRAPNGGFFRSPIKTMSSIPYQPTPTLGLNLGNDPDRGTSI
Text: (C) Left panels, example recordings of oocytes expressing A654T lurcher-mutant RatGluD2 (RatGluD2Lc) in response to indicated AMPA iGluR antagonists and D-serine. Dashed line, zero current baseline. Right panel, % inhibition at different oocytes (dots) and resulting means (columns).

[9] = target: T4, WT RatGluD2 (Rattus norvegicus, UniProt Q63226); experiment: Two-electrode voltage clamp in oocytes; assay type: cell-based; details: n = 4
T4 construct: expressed in transfected cells; host or cells: Xenopus laevis oocytes injected with mRNA
T4 sequence (Q63226 24-1007): T3 sequence (Q63226 24-1007 A654T) with T631A

T2 sequence (Q63226 24-1007 Y613F/A654T/A686S/K694R/N720P/D753Q/N763K/Q786M/R787V/P806D): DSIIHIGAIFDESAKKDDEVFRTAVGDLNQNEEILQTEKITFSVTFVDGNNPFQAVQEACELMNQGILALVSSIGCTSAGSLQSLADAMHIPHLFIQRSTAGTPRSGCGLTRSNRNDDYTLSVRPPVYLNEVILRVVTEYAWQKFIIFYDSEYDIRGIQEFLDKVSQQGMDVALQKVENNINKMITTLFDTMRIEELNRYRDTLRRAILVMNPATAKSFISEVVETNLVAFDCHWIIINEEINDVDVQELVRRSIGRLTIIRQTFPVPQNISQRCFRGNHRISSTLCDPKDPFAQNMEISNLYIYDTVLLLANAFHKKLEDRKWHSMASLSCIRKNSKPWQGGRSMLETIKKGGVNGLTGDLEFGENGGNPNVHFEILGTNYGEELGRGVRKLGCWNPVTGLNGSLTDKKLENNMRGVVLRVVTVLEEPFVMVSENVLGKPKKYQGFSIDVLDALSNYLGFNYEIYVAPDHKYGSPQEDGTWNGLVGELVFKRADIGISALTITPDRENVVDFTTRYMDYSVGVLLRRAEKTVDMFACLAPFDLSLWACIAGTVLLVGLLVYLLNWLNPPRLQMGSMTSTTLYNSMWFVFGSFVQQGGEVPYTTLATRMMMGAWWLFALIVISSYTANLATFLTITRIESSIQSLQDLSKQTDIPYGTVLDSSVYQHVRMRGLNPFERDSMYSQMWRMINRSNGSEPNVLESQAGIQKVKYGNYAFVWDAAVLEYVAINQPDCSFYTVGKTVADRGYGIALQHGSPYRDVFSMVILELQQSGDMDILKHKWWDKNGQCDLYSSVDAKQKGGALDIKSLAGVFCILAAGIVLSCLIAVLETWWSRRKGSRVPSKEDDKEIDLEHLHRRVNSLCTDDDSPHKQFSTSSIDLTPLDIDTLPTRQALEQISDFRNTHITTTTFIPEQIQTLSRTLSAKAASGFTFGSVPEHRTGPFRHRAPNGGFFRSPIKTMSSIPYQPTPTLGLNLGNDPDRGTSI
Chain of RatGluA2 AMPA receptors (P19491 22-883 isoform P19491-2 limits assumed): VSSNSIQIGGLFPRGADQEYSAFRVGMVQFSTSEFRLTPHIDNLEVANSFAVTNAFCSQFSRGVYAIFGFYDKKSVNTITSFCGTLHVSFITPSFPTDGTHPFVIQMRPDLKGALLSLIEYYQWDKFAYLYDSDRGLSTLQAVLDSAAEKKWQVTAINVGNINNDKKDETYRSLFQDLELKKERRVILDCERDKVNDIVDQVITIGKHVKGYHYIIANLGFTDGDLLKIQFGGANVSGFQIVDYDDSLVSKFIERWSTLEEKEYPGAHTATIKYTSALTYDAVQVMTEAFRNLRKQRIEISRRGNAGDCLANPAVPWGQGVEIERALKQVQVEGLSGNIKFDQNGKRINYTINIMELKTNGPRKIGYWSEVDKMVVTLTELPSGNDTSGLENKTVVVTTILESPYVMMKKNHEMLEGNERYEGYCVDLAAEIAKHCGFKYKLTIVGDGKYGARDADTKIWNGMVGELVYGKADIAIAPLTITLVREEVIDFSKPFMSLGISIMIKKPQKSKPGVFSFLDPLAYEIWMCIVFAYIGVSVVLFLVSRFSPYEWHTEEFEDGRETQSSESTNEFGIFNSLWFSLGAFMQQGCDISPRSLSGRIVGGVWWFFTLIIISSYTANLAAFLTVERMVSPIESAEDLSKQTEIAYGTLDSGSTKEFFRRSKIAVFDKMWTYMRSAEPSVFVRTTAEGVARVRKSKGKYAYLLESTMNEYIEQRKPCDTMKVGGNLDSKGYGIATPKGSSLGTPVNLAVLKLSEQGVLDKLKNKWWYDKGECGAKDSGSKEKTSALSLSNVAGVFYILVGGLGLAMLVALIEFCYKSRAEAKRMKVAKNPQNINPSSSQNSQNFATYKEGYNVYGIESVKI
Chain of RatGluA2 AMPA receptors (Q9Y698 whole entry partner): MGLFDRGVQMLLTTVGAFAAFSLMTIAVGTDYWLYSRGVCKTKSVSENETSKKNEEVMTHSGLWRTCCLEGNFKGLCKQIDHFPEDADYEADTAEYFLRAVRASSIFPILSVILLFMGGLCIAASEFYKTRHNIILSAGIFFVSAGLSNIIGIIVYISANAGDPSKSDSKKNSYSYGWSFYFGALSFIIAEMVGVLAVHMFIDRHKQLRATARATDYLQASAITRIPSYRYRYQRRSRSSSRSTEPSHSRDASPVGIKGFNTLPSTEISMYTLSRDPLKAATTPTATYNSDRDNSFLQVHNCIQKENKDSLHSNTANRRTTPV

N=C(N)c1ccc(OCCCCCOc2ccc(C(=N)N)cc2)cc1 [pentamidine]
inhibition at 100 µM [1]: 37 ± 3% | inhibition at 100 µM ([2]; 100 μM, n = 5, read-out: block of GABA-gated current): 68 ± 5% | inhibition at 100 µM ([2]; 100 µM, n = 7, read-out: block of glutamate-gated current): 78 ± 2% | effect on glycine-gated currents [3]: inhibited

Concanavalin A
increase in activity (GABA-gated current) after treatment [4]: > 100 fold | increase in activity (GABA-gated current) after treatment [5]: > 100 fold | increase in current amplitude after treatment [6]: fourfold increase | increase in activity (GABA-gated current) after treatment [7]: > 100 fold

N#Cc1cc2[nH]c(=O)c(=O)[nH]c2cc1[N+](=O)[O-] [CNQX]
currents elicited when applied alone ([2]; 100 μM, applied alone): elicited no currents | inhibition of GABA-gated current ([2]; 100 μM, coapplied with ~EC30 GABA concentration): 81 ± 4% | enhancement of glutamate-gated currents ([2]; 100 μM, n = 5): no effect | inhibition of constitutive currents [8]: 10 ± 0.2% | effect on oocytes expressing WT RatGluD2 [9]: no effect

Reference: publication PMC10861852, “Loss of activation by GABA in vertebrate delta ionotropic glutamate receptors” (Proceedings of the National Academy of Sciences of the …, 2024)
